# Assays:
# [1] = tested on: LOX IMVI; experiment: cells; conditions: Homo sapiens
# [2] = tested on: SF-539; conditions: SF-539, CNS cancer; five-dose 0.01–100 µM
# [3] = tested on: ACHN; conditions: Renal cancer, five-dose 0.01–100 µM
# [4] = tested on: OVCAR-8; conditions: OVCAR-8, Ovarian cancer; five-dose 0.01–100 µM
# [5] = tested on: KM12; conditions: KM12, Colon cancer; five-dose 0.01–100 µM
# [6] = tested on: SK-MEL-28; conditions: SK-MEL-28, Melanoma; five-dose 0.01–100 µM
# [7] = tested on: SK-OV-3; conditions: SK-OV-3, Ovarian cancer; five-dose 0.01–100 µM
# [8] = tested on: SK-MEL-28; experiment: cells; conditions: Homo sapiens
# [9] = tested on: SF-268; conditions: SF-268, CNS cancer; five-dose 0.01–100 µM
# [10] = tested on: MOLT-4; experiment: cells; conditions: Homo sapiens
# [11] = tested on: HCT-116; conditions: HCT-116, Colon cancer; five-dose 0.01–100 µM
# [12] = tested on: SNB-19; conditions: SNB-19, CNS cancer; five-dose 0.01–100 µM
# [13] = tested on: BT-549; conditions: BT-549, Breast cancer; five-dose 0.01–100 µM
# [14] = tested on: OVCAR-5; experiment: cells; conditions: Homo sapiens
# [15] = tested on: PC-3; experiment: cells; conditions: Homo sapiens
# [16] = tested on: HCT-15; conditions: HCT-15, Colon cancer; five-dose 0.01–100 µM
# [17] = tested on: IGROV1; experiment: cells; conditions: Homo sapiens
# [18] = tested on: SK-MEL-2; experiment: cells; conditions: Homo sapiens
# [19] = tested on: HCC-2998; conditions: HCC-2998, Colon cancer; five-dose 0.01–100 µM
# [20] = tested on: Renal cancer subpanel; experiment: NCI five-dose screen, subpanel MG-MID; format: cell-based, human
# Experimental: (§1) (Figures S53–S56 in Supporting Information). This assay evaluates GI50, TGI, and LC50 parameters, as cited in Table 1. Their values correspondingly represent the GI level, cytostatic impact, and cytotoxicity parameter. Furthermore, based on the GI50 values, the mean graph midpoints (MG-MID) for both full NCI 59 cell panel and subpanel cancer cell lines were evaluated, affording a median potency parameter for the examined compound 6i, as depicted in Table 2.
# (§2) Moreover, the selectivity index (SI) of the most efficient analogue 6i was calculated from the division of full-panel MG-MID by subpanel MG-MID. A value greater than 6 implies high selectivity, whereas a ratio from 3 to 6 denotes moderate selectivity. Otherwise, the compound is referred to as non-selective.[24] […] Therefore, the outstanding anti-cancer profile of compound 6i against the herein examined NCI-59 cell panels inspired us to explore its mechanism of action further.
# (§3) The designed analogues were submitted to NCI-Chemotherapeutic Agents Repository (MD, USA) for screening on a panel of 59 cancer cell lines. All compounds were initially examined at 10 µM concentration (Single-Dose Screen), and then the most efficient analogue 6i was screened further at 0.01–100 µM (Five-Dose Screen). The screening procedures were performed according to NCI-Drug Evaluation Branch protocol using SRB protein assay, as described previously[21]^,[66]. The experimental procedures were detailed in the Supporting Information.
# [21] = tested on: Colon cancer subpanel; experiment: NCI five-dose screen, subpanel MG-MID; format: cell-based, human
# Experimental: as §1, §2, §3
# [22] = tested on: Melanoma subpanel; experiment: NCI five-dose screen, subpanel MG-MID; format: cell-based, human
# Experimental: as §1, §2, §3
# [23] = tested on: Prostate cancer subpanel; experiment: NCI five-dose screen, subpanel MG-MID; format: cell-based, human
# Experimental: as §1, §2, §3
# [24] = tested on: Leukaemia subpanel; experiment: NCI five-dose screen, subpanel MG-MID; format: cell-based, human
# Experimental: as §1, §2, §3
# [25] = tested on: Breast cancer subpanel; experiment: NCI five-dose screen, subpanel MG-MID; format: cell-based, human
# Experimental: as §1, §2, §3
# [26] = tested on: CNS cancer subpanel; experiment: NCI five-dose screen, subpanel MG-MID; format: cell-based, human
# Experimental: as §1, §2, §3
# [27] = tested on: Ovarian cancer subpanel; experiment: NCI five-dose screen, subpanel MG-MID; format: cell-based, human
# Experimental: as §1, §2, §3
# [28] = tested on: Non-small cell lung cancer subpanel; experiment: NCI five-dose screen, subpanel MG-MID; format: cell-based, human
# Experimental: as §1, §2, §3
# [29] = tested on: OVCAR-4; experiment: cells; conditions: Homo sapiens
# [30] = tested on: SW-620; conditions: SW-620, Colon cancer; five-dose 0.01–100 µM
# [31] = tested on: T-47D; experiment: cells; conditions: Homo sapiens, T47D
structure (smiles),measurement,setting,value
CCOC(=O)CC[C@H](NC(=O)c1ccc(NC(=O)Cn2cnc3c(c(C)nn3-c3ccc(Br)cc3)c2=O)cc1)C(=O)OCC [Compound 6i],GI50,[1],5.3 µM
same,CC50,[1]; read-out: LC50,58.4 µM
same,TGI,[2],33.0 µM
same,TGI,[3],34.3 µM
same,TGI,[4],>100 µM
same,TGI,[5],>100 µM
same,TGI,[6],22.5 µM
same,TGI,[7],67.3 µM
same,GI50,[8]; SK-MEL-28,10.1 µM
same,CC50,"[8]; SK-MEL-28, read-out: LC50",50.2 µM
same,TGI,[9],32.8 µM
same,GI50,[10]; MOLT-4,> 100 µM
same,CC50,"[10]; MOLT-4, read-out: LC50",> 100 µM
same,TGI,[11],>100 µM
same,TGI,[12],27.3 µM
same,TGI,[13],>100 µM
same,GI50,[14]; OVCAR-5,20.2 µM
same,CC50,"[14]; OVCAR-5, read-out: LC50",> 100 µM
same,GI50,[15]; PC-3,5.79 µM
same,CC50,"[15]; PC-3, read-out: LC50",47.7 µM
same,TGI,[16],>100 µM
same,GI50,[17]; IGROV-1,23.9 µM
same,CC50,"[17]; IGROV-1, read-out: LC50",> 100 µM
same,GI50,[18]; SK-MEL-2,27.6 µM
same,CC50,"[18]; SK-MEL-2, read-out: LC50",> 100 µM
same,TGI,[19],>100 µM
same,MG-MID,"[20]; Renal cancer subpanel, based on GI50",19.19 µM
same,Selectivity index,"[20]; Renal cancer, full-panel MG-MID / subpanel MG-MID",1.06
same,MG-MID,"[21]; Colon cancer subpanel, based on GI50",18.34 µM
same,Selectivity index,"[21]; Colon cancer, full-panel MG-MID / subpanel MG-MID",1.11
same,MG-MID,"[22]; Melanoma subpanel, based on GI50",16.8 µM
same,Selectivity index,"[22]; Melanoma, full-panel MG-MID / subpanel MG-MID",1.21
same,MG-MID,"[23]; Prostate cancer subpanel, based on GI50",6.63 µM
same,Selectivity index,"[23]; Prostate cancer, full-panel MG-MID / subpanel MG-MID",3.08
same,MG-MID,"[24]; Leukaemia subpanel, based on GI50",68.03 µM
same,Selectivity index,"[24]; Leukaemia, full-panel MG-MID / subpanel MG-MID",0.30
same,MG-MID,"[25]; Breast cancer subpanel, based on GI50",15.29 µM
same,Selectivity index,"[25]; Breast cancer, full-panel MG-MID / subpanel MG-MID",1.33
same,MG-MID,"[26]; CNS cancer subpanel, based on GI50",12.70 µM
same,Selectivity index,"[26]; CNS cancer, full-panel MG-MID / subpanel MG-MID",1.61
same,MG-MID,"[27]; Ovarian cancer subpanel, based on GI50",16.52 µM
same,Selectivity index,"[27]; Ovarian cancer, full-panel MG-MID / subpanel MG-MID",1.23
same,MG-MID,"[28]; Non-small cell lung cancer subpanel, based on GI50",10.62 µM
same,Selectivity index,"[28]; Non-small cell lung cancer, full-panel MG-MID / subpanel MG-MID",1.92
same,GI50,[29]; OVCAR-4,13.4 µM
same,CC50,"[29]; OVCAR-4, read-out: LC50",76.7 µM
same,TGI,[30],44.4 µM
same,GI50,[31],45.6 µM
same,CC50,[31]; read-out: LC50,> 100 µM
